US20080312192A1, “Diaryl Urea Derivatives in the Treatment of Protein Kinase Dependent Diseases” (priority 2003, published 2008)
pIC50: −log10 of the molar value.

What was measured:
Flt-3 = target: T1, Flt-3 (Homo sapiens, UniProt P36888); experiment: Flt-3 kinase inhibition (GST-Flt-3, 33P incorporation into poly(Glu,Tyr)); assay type: biochemical
T1 construct: amino acids 563-993 of the cytoplasmic kinase domain of human Flt-3; made in house; host or cells: Sf9 insect cells (baculovirus, vector pFbacG01)
T1 sequence (P36888 563-993): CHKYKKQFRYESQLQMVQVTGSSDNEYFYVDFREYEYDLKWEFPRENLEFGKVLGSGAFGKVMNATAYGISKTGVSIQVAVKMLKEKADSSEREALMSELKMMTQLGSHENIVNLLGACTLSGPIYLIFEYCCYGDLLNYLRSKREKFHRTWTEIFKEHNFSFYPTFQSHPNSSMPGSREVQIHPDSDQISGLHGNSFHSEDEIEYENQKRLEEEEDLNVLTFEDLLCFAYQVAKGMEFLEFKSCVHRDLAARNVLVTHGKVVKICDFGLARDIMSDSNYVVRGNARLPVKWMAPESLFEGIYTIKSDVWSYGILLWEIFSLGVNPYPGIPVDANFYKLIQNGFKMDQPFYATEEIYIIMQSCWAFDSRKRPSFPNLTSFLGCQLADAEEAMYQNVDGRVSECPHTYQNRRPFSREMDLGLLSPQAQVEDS
Procedure: Flt-3 kinase inhibition is determined as follows: The baculovirus donor vector pFbacG01 (GIBCO) is used to generate a recombinant baculovirus expressing the amino acid region amino acids 563-993 of the cytoplasmic kinase domain of human Flt-3. The coding sequence for the cytoplasmic domain of Flt-3 is amplified by PCR from human c-DNA libraries (Clontech). The amplified DNA fragments and the pFbacG01 vector are made compatible for ligation by digestion with BamHI and HindIII. Ligation of these DNA fragments results in the baculovirus donor plasmid pFbacG01-Flt-3. The production of the viruses, the expression of proteins in Sf9 cells and the purification of the GST-fused proteins are performed as follows:
Production of virus: The baculovirus donor plasmid (pFbacG01-Flt-3) containing the Flt-3 kinase domain is transfected into the DH10Bac cell line (GIBCO) and the transfected cells are plated on selective agar plates. Colonies without insertion of the fusion sequence into the viral genome (carried by the bacteria) are blue. Single white colonies are picked and viral DNA (bacmid) is isolated from the bacteria by standard plasmid purification procedures. Sf9 or Sf21 cells (American Type Culture Collection) are then transfected in flasks with the viral DNA using Cellfectin reagent.
Protein expression in Sf9 cells: Virus containing media is collected from the transfected cell culture and used for infection to increase its titre. Virus containing media obtained after two rounds of infection is used for large-scale protein expression. For large-scale protein expression 100 cm^2 round tissue culture plates are seeded with 5×10^7 cells/plate and infected with 1 mL of virus-containing media (approx. 5 MOIs). After 3 days the cells are scraped off the plate and centrifuged at 500 rpm for 5 min. Cell pellets from 10-20, 100 cm^2 plates are resuspended in 50 mL of ice-cold lysis buffer (25 mM Tris-HCl, pH 7.5, 2 mM EDTA-1% NP-40. 1 mM DTT, 1 mM PMSF). The cells are stirred on ice for 15 min and then centrifuged at 5000 rpms for 20 min.
Purification of GST-tagged protein: The centrifuged cell lysate is loaded onto a 2 mL glutathione-sepharose column (Pharmacia) and washed three times with 10 mL of 25 mM Tris-HCl, pH 7.5, 2 mM EDTA, 1 mM DTT, 200 mM NaCl. The GST-tagged protein is then eluted by 10 applications (1 mL each) of 25 mM Tris-HCl, pH 7.5, 10 mM reduced-glutathione, 100 mM NaCl, 1 mM DTT, 10% Glycerol and stored at −70° C.
Measurement of enzyme activity: Tyrosine protein kinase assays with purified GST-Flt-3 protein are carried out in a final volume of 30 μL containing 200-1800 ng of enzyme protein (depending on the specific activity), 20 mM Tris-HCl, pH 7.6, 3 mM MnCl2, 3 mM MgCl2, 1 mM DTT, 10 μM Na3VO4, 3 μg/mL poly(Glu, Tyr) 4:1, 1% DMSO, 8.0 μM ATP and 0.1 μCi [γ^33 P] ATP. The activity is assayed in the presence or absence of inhibitors, by measuring the incorporation of ^33P from [γ^33P] ATP into the poly(Glu,Tyr) substrate. The assay (30 μL) is carried out in 96-well plates at ambient temperature for 20 min and terminated by the addition of 20 μL of 125 mM EDTA. Subsequently, 40 μL of the reaction mixture is transferred onto Immobilon-PVDF membrane (Millipore, Bedford, Mass., USA) previously soaked for 5 min with methanol, rinsed with water, then soaked for 5 min with 0.5% H3PO4 and mounted on vacuum manifold with disconnected vacuum source. After spotting all samples, vacuum is connected and each well rinsed with 200 μL 0.5% H3PO4. Membranes are removed and washed 4× on a shaker with 1.0% H3PO4, once with ethanol. Membranes are counted after drying at ambient temperature, mounting in Packard TopCount 96-well frame, and addition of 10 μL/well of Microscint™ (Packard). IC50 values are calculated by linear regression analysis of the percentage inhibition of each compound in duplicate, at four concentrations (usually 0.01, 0.1, 1 and 10 μM). One unit of protein kinase activity is defined as 1 nmole of ^33P transferred from [γ3P] […]

Compound	pIC50 (Flt-3)	melting point [°C]
CC(C)N1CCN(Cc2cc(NC(=O)Nc3ccc(Oc4cc(Cl)ncn4)cc3)cc(C(F)(F)F)c2)CC1 [Example 5, N-[4-(6-Chloro-pyrimidin-4-yloxy)-phenyl]-N′-[3-(4-isopropylpiperazin-1-ylmethyl)-5-trifluoromethyl-phenyl]-urea]	6.27	101
CN1CCN(Cc2cc(NC(=O)Nc3ccc(Oc4cc(Cl)ncn4)cc3)cc(C(F)(F)F)c2)CC1 [Example 9, N-[4-(6-Chloro-Pyrimidin-4-yloxy)-phenyl]-N′-[3-(4-methylpiperazin-1-ylmethyl)-5-trifluoromethyl-phenyl]-urea]	6.49	291 to 292
CCN(CC)Cc1cc(NC(=O)Nc2ccc(Oc3cc(NC)ncn3)cc2)cc(C(F)(F)F)c1 [Example 11, N-[4-(6-Methylamino-pyrimidin-4-yloxy)-phenyl]-N′-(3-diethylaminomethyl-5-trifluoromethyl-phenyl)-urea]	6.64	68 to 70
CCN(CC)Cc1cc(NC(=O)Nc2ccc(Oc3cc(N)ncn3)cc2)cc(C(F)(F)F)c1 [Example 13, N-[4-(6-Amino-pyrimidin-4-yloxy)-phenyl]-N′-(3-diethylaminomethyl-5-trifluoromethyl-phenyl)-urea]	6.47	63 to 65
Cc1ncn(Cc2ccc(NC(=O)Nc3ccc(Oc4cc(Cl)ncn4)cc3)cc2C(F)(F)F)c1C [Example 23, N-[4-(6-Chloro-pyrimidin-4-yloxy)-phenyl]-N′-[4-(4,5-dimethylimidazol-1-ylmethyl)-3-trifluoromethyl-phenyl]-urea]	5.89	195 to 196
Cc1nccn1Cc1ccc(NC(=O)Nc2ccc(Oc3cc(Cl)ncn3)cc2)cc1C(F)(F)F [Example 24, N-[4-(6-Chloro-pyrimidin-4-yloxy)-phenyl]-N′-[4-(2-methylimidazol-1-ylmethyl)-3-trifluoromethyl-phenyl]-urea]	6.77	228
CCN1CCN(Cc2ccc(NC(=O)Nc3ccc(Oc4cc(Cl)ncn4)cc3)cc2)CC1 [Example 27, N-[4-(6-Chloro-pyrimidin-4-yloxy)-phenyl]-N′-[4-(4-ethylpiperazin-1-ylmethyl)-phenyl]-urea]		203 to 204
CNc1nccc(Oc2ccc(NC(=O)Nc3ccc(CN(C)C)c(C(F)(F)F)c3)cc2)n1 [Example 48, N-[4-(2-Methylamino-pyrimidin-4-yloxy)-phenyl]-N′-[4-(4-dimethylamino-methyl) 3-trifluoromethyl-phenyl]-urea]	6.24	
Cc1nccn1Cc1ccc(NC(=O)Nc2ccc(Oc3ccnc(N)n3)cc2)cc1C(F)(F)F [Example 51b.1]	6.89	
CNc1nccc(Oc2ccc(NC(=O)Nc3ccc(Cn4ccnc4C)c(C(F)(F)F)c3)cc2)n1 [Example 51b.2]	6.77	
CCN1CCN(Cc2ccc(NC(=O)Nc3ccc(Oc4ccnc(N)n4)cc3)cc2C)CC1 [Example 51d.1]	7.04	
CCN1CCN(Cc2ccc(NC(=O)Nc3ccc(Oc4ccnc(NC)n4)cc3)cc2C)CC1 [Example 51d.2]	6.87	
CCN1CCN(Cc2ccc(NC(=O)Nc3ccc(Oc4ccnc(N)n4)cc3)cc2)CC1 [Example 51e.1]	6.60	
CCN1CCN(Cc2ccc(NC(=O)Nc3ccc(Oc4ccnc(NC)n4)cc3)cc2)CC1 [Example 51e.2]	6.04	
Nc1cc(Oc2ccc(NC(=O)Nc3ccc(-c4ccccn4)c(C(F)(F)F)c3)cc2)ncn1 [Example 57, 1-[4-(6-Amino-pyrimidin-4-yloxy)-phenyl]-3-(4-pyridin-2-yl-3-trifluoromethyl-phenyl)-urea]	6.93	
Nc1cc(Oc2ccc(NC(=O)Nc3ccc(-c4cccnc4)c(C(F)(F)F)c3)cc2)ncn1 [Example 58, 1-[4-(6-Amino-pyrimidin-4-yloxy)-phenyl]-3-(4-pyridin-3-yl-3-trifluoromethyl-phenyl)-urea]	6.92	132 to 135
Nc1cc(Oc2ccc(NC(=O)Nc3ccc(-c4ccncc4)c(C(F)(F)F)c3)cc2)ncn1 [Example 59, 1-[4-(6-Amino-pyrimidin-4-yloxy)-phenyl]-3-(4-pyridine-4-yl-3-trifluoromethyl-phenyl)-urea]	7.12	131 to 135
Cc1cccc(-c2ccc(NC(=O)Nc3ccc(Oc4cc(N)ncn4)cc3)cc2C(F)(F)F)n1 [Example 60, 1-[4-(6-Amino-pyrimidin-4-yloxy)-phenyl]-3-[4-(6-methyl-pyridin-2-yl)-3-trifluoromethyl-phenyl]-urea]	6.80	130 to 133
CNc1cc(Oc2ccc(NC(=O)Nc3ccc(-c4ccccn4)c(C(F)(F)F)c3)cc2)ncn1 [Example 61, 1-[4-(6-Methylamino-pyrimidin-4-yloxy)-phenyl]-3-(4-pyridin-2-yl-3-trifluoromethyl-phenyl)-urea]	6.31	114 to 118
CCN1CCN(Cc2ccc(NC(=O)Nc3ccc(Oc4cc(NC(=O)OC)ncn4)cc3)cc2C(F)(F)F)CC1 [Example 70]		191 to 193

Now from value to molecule:

pIC50 (Flt-3)	melting point [°C]	Compound
7.42	153 to 155	Nc1cc(Oc2ccc(NC(=O)Nc3ccc(CN4CCNCC4)c(C(F)(F)F)c3)cc2)ncn1 [Example 19-1, N-[4-(6-Amino-pyrimidin-4-yloxy)-phenyl]-N′-[4-(4-H-piperazin-1-ylmethyl)-5-trifluoromethyl-phenyl]-urea]
7.10	197 to 198	CNc1cc(Oc2ccc(NC(=O)Nc3ccc(CN4CCNCC4)c(C(F)(F)F)c3)cc2)ncn1 [Example 19-2, N-[4-(6-Methylamino-pyrimidin-4-yloxy)-phenyl]-N′-[4-(4-H-piperazin-1-ylmethyl)-5-trifluoromethyl-phenyl]-urea]
	98 to 105	CN(C)Cc1ccc(NC(=O)Nc2ccc(Oc3cc(Cl)ncn3)cc2)cc1C(F)(F)F [Example 20-2, N-[4-(6-Chloro-pyrimidin-4-yloxy)-phenyl]-N′-[4-(N,N-dimethylamino-methyl)-3-trifluoromethyl-phenyl]-urea]
7.10		Nc1nccc(Oc2ccc(NC(=O)Nc3cccc(C(F)(F)F)c3)cc2)n1 [Example 52b]
6.59		Nc1nccc(Oc2ccc(NC(=O)Nc3cc(-c4ccccn4)cc(C(F)(F)F)c3)cc2)n1 [Example 52d]
6.43		COc1cccc(Nc2cc(Oc3ccc(NC(=O)Nc4ccc(N5CCOCC5)c(C(F)(F)F)c4)cc3)ncn2)c1 [Example 55c]
6.01		O=C(Nc1ccc(Oc2cc(NC3CCC(O)CC3)ncn2)cc1)Nc1ccc(N2CCOCC2)c(C(F)(F)F)c1 (stereo not drawn) [Example 55d]
